Test results as given in BindingDB's records for doi:10.1021/jm201482p (University of Nebraska Medical Center, 2012).
pIC50: −log10 of the molar value.

Molecular target: Cholinesterase (Homo sapiens, UniProt P06276)
Assay: Inhibition of human BChE after 30 mins by microplate reader method

Chain of Cholinesterase (P06276 whole entry): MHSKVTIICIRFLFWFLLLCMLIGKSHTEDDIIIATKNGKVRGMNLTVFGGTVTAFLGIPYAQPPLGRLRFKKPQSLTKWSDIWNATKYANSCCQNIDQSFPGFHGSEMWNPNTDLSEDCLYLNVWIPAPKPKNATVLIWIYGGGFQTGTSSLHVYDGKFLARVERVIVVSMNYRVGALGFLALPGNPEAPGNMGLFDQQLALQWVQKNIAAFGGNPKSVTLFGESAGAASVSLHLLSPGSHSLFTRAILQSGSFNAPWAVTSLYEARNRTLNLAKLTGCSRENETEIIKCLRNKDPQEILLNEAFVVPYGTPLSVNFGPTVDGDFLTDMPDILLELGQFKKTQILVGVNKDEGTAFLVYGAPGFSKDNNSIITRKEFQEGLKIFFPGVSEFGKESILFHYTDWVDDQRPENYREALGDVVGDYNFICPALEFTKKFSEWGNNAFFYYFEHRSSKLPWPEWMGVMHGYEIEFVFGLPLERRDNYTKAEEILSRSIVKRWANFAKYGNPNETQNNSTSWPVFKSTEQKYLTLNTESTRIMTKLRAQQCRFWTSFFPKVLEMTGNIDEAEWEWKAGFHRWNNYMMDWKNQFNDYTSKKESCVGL

CC(C)(C)c1cc(C(C)(C)C)c2c(c1F)COP(=O)(OC[C@H]1O[C@@H](n3cc(I)c(=O)[nH]c3=O)C[C@@H]1O)O2 (stereo partly specified)
pIC50: < 1.22
